Experimental findings from ChEMBL document CHEMBL1687837, “Roles of residues Cys69, Asn104, Phe160, Gly232, Ser237, and Asp240 in extended-spectrum beta-lactamase Toho-1” (2011) are described below.

One may read the MIC as the least concentration at which growth counts as inhibited. One may read the Km as the concentration of substrate that gives half-maximal velocity. A word on the kcat: it is the number of substrate molecules converted per active site and unit of time at saturation.

In brackets after ≈: the same amount, converted by molar mass. Bounds are passed on as bounds.

Test [1] deals with Escherichia coli. The experiment in a line: Antibacterial activity against Escherichia coli AS226 carrying pBSDF160T mutant after 18 hrs by broth microdilution method. The test is classed as functional. To be noted: AS226, 18 h. (In general: In broth dilution the organism is exposed to a series of concentrations in liquid medium.)
Test [2] relates to Escherichia coli. The experiment in a line: Antibacterial activity against Escherichia coli AS226 carrying pBSDS237A mutant after 18 hrs by broth microdilution method. The following applies: AS226, 18 h. The class given is functional.
Test [3] deals with Escherichia coli. Put plainly: Antibacterial activity against Escherichia coli AS226 carrying pBSD-H2 after 18 hrs by broth microdilution method. The class given is functional. The following applies: AS226, 18 h.
Test [4] has as its system Escherichia coli. Put plainly: Antibacterial activity against Escherichia coli AS226 after 18 hrs by broth microdilution method. The following applies: AS226, 18 h. The class given is functional.
Test [5] relates to Escherichia coli. The experiment in a line: Antibacterial activity against Escherichia coli AS226 carrying pBSDC69A mutant after 18 hrs by broth microdilution method. The test is classed as functional. The following applies: AS226, 18 h.
Test [6] concerns Escherichia coli. The experiment in a line: Antibacterial activity against Escherichia coli AS226 carrying pBSDN104D mutant after 18 hrs by broth microdilution method. The test is classed as functional. To be noted: AS226, 18 h.
For test [7], the system named is Escherichia coli. The experiment in a line: Antibacterial activity against Escherichia coli AS226 carrying pBSDD240A mutant after 18 hrs by broth microdilution method. The test is classed as functional. To be noted: AS226, 18 h.
The test system of test [8] is Escherichia coli. The experiment in a line: Antibacterial activity against Escherichia coli AS226 carrying pBSDN104A mutant after 18 hrs by broth microdilution method. The test is classed as functional. The following applies: AS226, 18 h.
Test [9] deals with Escherichia coli. Put plainly: Antibacterial activity against Escherichia coli AS226 carrying pBSDD240S mutant after 18 hrs by broth microdilution method. The test is classed as functional. To be noted: AS226, 18 h.
Test [10] deals with Escherichia coli. The experiment in a line: Antibacterial activity against Escherichia coli AS226 carrying pBSD6 mutant after 18 hrs by broth microdilution method. The test is classed as functional. The following applies: AS226, 18 h.
Test [11] relates to Escherichia coli. The experiment in a line: Ratio of Kcat to Km for Escherichia coli beta-lactamase Toho-1 N104A mutant assessed as compound hydrolysis by spectrophotometry.
In test [12] the test system is Escherichia coli. Put plainly: Activity of Escherichia coli beta-lactamase Toho-1 C69A mutant assessed as compound hydrolysis by spectrophotometry.
The test system of test [13] is Escherichia coli. Put plainly: Ratio of Kcat to Km for Escherichia coli beta-lactamase Toho-1 C69A mutant assessed as compound hydrolysis by spectrophotometry.
In test [14] the test system is Escherichia coli. The experiment in a line: Ratio of Kcat to Km for Escherichia coli beta-lactamase Toho-1 G232A mutant assessed as compound hydrolysis by spectrophotometry.
The subject of test [15] is Escherichia coli. The experiment in a line: Activity of Escherichia coli beta-lactamase Toho-1 […] mutant assessed as compound hydrolysis by spectrophotometry.
Test [16] concerns Escherichia coli. Put plainly: Activity of Escherichia coli beta-lactamase Toho-1 D240S mutant assessed as compound hydrolysis by spectrophotometry.
Test [17] has as its system Escherichia coli. Put plainly: Ratio of Kcat to Km for Escherichia coli beta-lactamase Toho-1 F160T mutant assessed as compound hydrolysis by spectrophotometry.
In test [18] the test system is Escherichia coli. Put plainly: Ratio of Kcat to Km for Escherichia coli beta-lactamase Toho-1 […] mutant assessed as compound hydrolysis by spectrophotometry.
In test [19] the test system is Escherichia coli. Put plainly: Activity of Escherichia coli beta-lactamase Toho-1 G232A mutant assessed as compound hydrolysis by spectrophotometry.
The test system of test [20] is Escherichia coli. The experiment in a line: Ratio of Kcat to Km for Escherichia coli beta-lactamase Toho-1 D240A mutant assessed as compound hydrolysis by spectrophotometry.
For test [21], the system named is Escherichia coli. Put plainly: Ratio of Kcat to Km for Escherichia coli beta-lactamase Toho-1 D240S mutant assessed as compound hydrolysis by spectrophotometry.
The subject of test [22] is Escherichia coli. The experiment in a line: Ratio of Kcat to Km for Escherichia coli beta-lactamase Toho-1 N104D mutant assessed as compound hydrolysis by spectrophotometry.
In test [23] the test system is Escherichia coli. The experiment in a line: Activity of Escherichia coli beta-lactamase Toho-1 D240A mutant assessed as compound hydrolysis by spectrophotometry.
Test [24] relates to Escherichia coli. The experiment in a line: Activity of Escherichia coli beta-lactamase Toho-1 F160T mutant assessed as compound hydrolysis by spectrophotometry.
The subject of test [25] is Escherichia coli. The experiment in a line: Activity of Escherichia coli beta-lactamase Toho-1 N104A mutant assessed as compound hydrolysis by spectrophotometry.
Test [26] relates to Escherichia coli. The experiment in a line: Activity of Escherichia coli beta-lactamase Toho-1 N104D mutant assessed as compound hydrolysis by spectrophotometry.

Consider `CC(C)(O/N=C(\C(=O)N[C@@H]1C(=O)N2C(C(=O)[O-])=C(C[n+]3ccccc3)CS[C@H]12)c1csc(N)n1)C(=O)O` [CEFTAZIDIME], for which the MIC against Escherichia coli [1] is 1 µg/mL (≈ 1.83 µM); in the test on Escherichia coli [2] it was 0.5 µg/mL (≈ 0.915 µM); against Escherichia coli [3] it was 0.25 µg/mL (≈ 0.457 µM); against Escherichia coli [4] it was under 0.125 µg/mL; in the test with Escherichia coli [5], 4 µg/mL (≈ 7.32 µM); with Escherichia coli [6], under 0.125 µg/mL. For the same compound, the MIC with Escherichia coli [7] is 8 µg/mL (≈ 14.6 µM); in the test with Escherichia coli [8], under 0.125 µg/mL; in the test on Escherichia coli [9], 4 µg/mL (≈ 7.32 µM); in the test on Escherichia coli [10] it was 0.25 µg/mL (≈ 0.457 µM).

With `CO/N=C(\C(=O)N[C@@H]1C(=O)N2C(C(=O)O)=C(CSc3cnns3)CS[C@H]12)c1csc(N)n1` [CEFUZONAM], the minimal inhibitory concentration (MIC) with Escherichia coli [1] is 512 µg/mL (≈ 997 µM); in the test on Escherichia coli [2] it was 1020 µg/mL (≈ 1990 µM); in the test with Escherichia coli [3], 2050 µg/mL (≈ 3990 µM); against Escherichia coli [4], under 0.125 µg/mL; against Escherichia coli [5] it was 2050 µg/mL (≈ 3990 µM); in the test on Escherichia coli [6], 64 µg/mL (≈ 125 µM). Further, the MIC against Escherichia coli [7] was 1020 µg/mL (≈ 1990 µM); with Escherichia coli [8], 16 µg/mL (≈ 31.2 µM); against Escherichia coli [9], 256 µg/mL (≈ 498 µM); in the test with Escherichia coli [10], 2 µg/mL (≈ 3.89 µM). Further, the kcat/Km in the test with Escherichia coli [11] was determined as 2.8 ×10⁵ /s/M; in the test on Escherichia coli [13], 2.3 ×10⁶ /s/M; in the test with Escherichia coli [14], 3.3 ×10⁶ /s/M; with Escherichia coli [17] it was 2.1 ×10⁶ /s/M; with Escherichia coli [18] it was 9.4 ×10⁵ /s/M; in the test on Escherichia coli [20], 2.1 ×10⁶ /s/M. Also, the kcat/Km is 2 ×10⁶ /s/M in the test with Escherichia coli [21] and 5.7 ×10⁵ /s/M in the test with Escherichia coli [22]. Also, the Km with Escherichia coli [12] was 240 µM; with Escherichia coli [15], 140 µM; in the test on Escherichia coli [16], 220 µM; with Escherichia coli [19] it was 190 µM; with Escherichia coli [23] it was 260 µM; in the test with Escherichia coli [24], 220 µM. Moreover, the kcat in the test with Escherichia coli [12] was 560 s⁻¹; in the test with Escherichia coli [15] it was 130 s⁻¹; in the test on Escherichia coli [16], 430 s⁻¹; in the test with Escherichia coli [19], 630 s⁻¹; in the test with Escherichia coli [23] it was 550 s⁻¹; in the test on Escherichia coli [24] it was 470 s⁻¹.

For the compound `O=C(Cc1cccs1)N[C@@H]1C(=O)N2C(C(=O)[O-])=C(C[n+]3ccccc3)CS[C@H]12` [CEPHALORIDINE], the minimum inhibitory concentration (MIC) with Escherichia coli [1] was 512 µg/mL (≈ 1230 µM); in the test with Escherichia coli [2] it was 2050 µg/mL (≈ 4930 µM); with Escherichia coli [3] it was 1020 µg/mL (≈ 2460 µM); with Escherichia coli [4], 2 µg/mL (≈ 4.81 µM); against Escherichia coli [5], 1020 µg/mL (≈ 2460 µM); with Escherichia coli [6], 256 µg/mL (≈ 616 µM). Also, the MIC in the test on Escherichia coli [7] was 1020 µg/mL (≈ 2460 µM); against Escherichia coli [8], 32 µg/mL (≈ 77 µM); with Escherichia coli [9] it was 1020 µg/mL (≈ 2460 µM); with Escherichia coli [10], 8 µg/mL (≈ 19.3 µM). Besides, the kcat/Km amounted to 2.2 ×10⁵ /s/M in the test on Escherichia coli [11]; 1 ×10⁶ /s/M with Escherichia coli [13]; 1.5 ×10⁶ /s/M in the test on Escherichia coli [14]; 1.1 ×10⁶ /s/M in the test with Escherichia coli [17]; 1.2 ×10⁶ /s/M in the test with Escherichia coli [18]; 7.1 ×10⁵ /s/M in the test with Escherichia coli [20]. In addition, the figures for the kcat/Km in the test with Escherichia coli [21] and with Escherichia coli [22] were 7.6 ×10⁵ /s/M and 3 ×10⁵ /s/M, respectively. The Km in the test with Escherichia coli [12] came to 300 µM; in the test with Escherichia coli [25] it was 450 µM; with Escherichia coli [15] it was 270 µM; in the test with Escherichia coli [16], 250 µM; in the test on Escherichia coli [19] it was 290 µM; in the test with Escherichia coli [26], 400 µM. Also, the Km was 200 µM in the test on Escherichia coli [23] and 430 µM in the test on Escherichia coli [24]. Also, the kcat in the test with Escherichia coli [12] worked out at 300 s⁻¹; with Escherichia coli [25] it was 99 s⁻¹; in the test on Escherichia coli [15], 320 s⁻¹; in the test on Escherichia coli [16], 190 s⁻¹; with Escherichia coli [19] it was 440 s⁻¹; in the test on Escherichia coli [26], 120 s⁻¹. The catalytic constant (kcat) with Escherichia coli [23] came to 140 s⁻¹; with Escherichia coli [24] it was 470 s⁻¹.

As for `C[C@@H](O)[C@H]1C(=O)N2C(C(=O)O)=C(SCCNC=N)C[C@H]12` [IMIPENEM ANHYDROUS], the minimum inhibitory concentration (MIC) in the test with Escherichia coli [3] is under 0.125 µg/mL; against Escherichia coli [4], under 0.125 µg/mL; in the test on Escherichia coli [6], 0.125 µg/mL (≈ 0.418 µM); against Escherichia coli [7], 0.125 µg/mL (≈ 0.418 µM); in the test with Escherichia coli [8] it was 0.125 µg/mL (≈ 0.418 µM).
